Experimental findings from patent publication US20090215029A1, “METHODS OF ISOLATING AND PURIFYING NUCLEIC ACID-BINDING BIOMOLECULES AND COMPOSITIONS INCLUDING SAME” (CytoCure, Inc., priority 2007, published 2009) are described below.

In test [1] the test system is nucleic acids to a bound factor. The test can be described thus: Cross-linking / fixative activity: effectiveness in covalently linking nucleic acids to a bound factor. It counts as biochemical. As for the experimental part:
Several cross-linking fixatives incorporating a nucleic acid binding group covalently coupled with a primary amine-binding group were synthesized. These agents were assayed to determine effectiveness covalently linking nucleic acids to a bound factor.

A further test deals with whole cells. The test can be described thus: Combination crosslinking, first and second agents added to whole cells. It is filed as cell-based. Particulars: combination with second agent EGS (amine binding); both added more or less simultaneously to whole cells, not less than 30 minutes, room temperature to 37 Celsius.

Like-named read-outs stand apart in the source and are kept apart here.

Experimental for whole cells: Note: For Combination crosslinking experiments, both the First and Second agents are added more or less simultaneously to whole cells (ethidium bromide requires prior membrane permeabilization) for not less than 30 minutes at room temperature to 37 Celsius.

With “2,5-dioxopyrrolidin-1-yl-2-(4-(3-methylthioureido)-4-oxobutanoyloxy)ethyl succinate chloro(ethylenediamine)platinum(II) complex”, the Activity result in test [1] is on record as “Some”. Regarding `C1OC1C1CO1` (stereo not drawn) [1,3 butadiene diepoxide], in test [1], the “Activity as fixative agent” value is “some activity”. Regarding `Cc1oc2c(C)c3oc(=O)cc(C)c3cc2c1CN` [4-aminomethyl trioxsalen], the Activity result with whole cells is “Weak”. Regarding `O=C(CCC(=O)OCCOC(=O)CCC(=O)ON1C(=O)CCC1=O)NC(Cc1ccc(N(CCCl)CCCl)cc1)C(=O)O` (stereo not drawn) [A, 3-(4-(bis(2-chloroethyl)amino)phenyl)-2-(4-(2-(4-(2,5-dioxopyrrolidin-1-yloxy)-4-oxobutanoyloxy)ethoxy)-4-oxobutanamido)propanoic acid], in test [1], the Activity entry is given as “Strong”. In the case of `CC[n+]1c(-c2ccccc2)c2cc(N=[N+]=[N-])ccc2c2ccc(NC(=O)CCC(=O)OCCOC(=O)CCC(=O)ON3C(=O)CCC3=O)cc21.[Br-]` [B, 8-azido-3-(4-(2-(4-(2,5-dioxopyrrolidin-1-yloxy)-4-oxobutanoyloxy)ethoxy)-4-oxobutanamido)-5-ethyl-6-phenylphenanthridinium bromide], in test [1] (synthesized compounds: DNA-binding moiety coupled with NHS ester protein-binding moiety), the Activity entry is given as “Strong”. Consider `N.N.[Cl][Pt][Cl]` [Cisplatin], for which the Activity result in the test on whole cells was “Strong”. `CC[n+]1c(-c2ccccc2)c2cc(N=[N+]=[N-])ccc2c2ccc(N)cc21.[Br-]` [Ethidium bromide monoazide, 3-Amino-8-azido-5-ethyl-6-phenylphenanthridinium bromide]: in the test with whole cells, the Activity result is given as “Strong”.

`O=CCCCC=O` [glutaraldehyde]: the “Activity as fixative agent” value in test [1] (additional fixative agents) is “some activity”.

As for `O=CC=O` [glyoxal], the “Activity as fixative agent” value in test [1] was “some activity”.
